Measurements published in patent publication US20170290328A1, “COMPOSITIONS AND METHODS FOR APPLYING AGRICULTURAL PRODUCTS” (priority 2014, published 2017).

Tests used:
[1] = system: Marestail; assay: Additional field trial, Clarity + Roundup PowerMax with adjuvant formulations, weed control; assay type: in vivo, Conyza canadensis; details: Clarity tank mixed with Roundup PowerMax, Example 2
Method: Additional field trials were performed that compared Sharpen (active ingredient: saflufenacil ([2-chloro-4-fluoro-5-(3-methyl-2,6-dioxo-4-(trifluoromethyl)-3, 6-dihydro-1(2H)-pyrimidinyl)benzoyl]-N-isopropyl-N-methylsulfamide)) or Clarity (active ingredient: diglycolamine salt of 3,6-dichloro-o-anisic acid) to formulations described herein.

[2] = system: Marestail; assay: Roundup PowerMax Plus Sharpen Trials, weed control evaluation; assay type: in vivo
Method: (§1) Each treatment was comprised of a mixture of Roundup PowerMax (glyphosate potassium) at 11 oz/ac plus Sharpen (saflufenacil) diluted and applied at 10 gallons/acre spray volume. A-110 is a polymeric nonionic and alkyl and aryl ethoxylate blend emulsifier commercially available from Adjuvants Unlimited (Tulsa, Okla). Emulsifier “D” is a blend of polyoxyalkenes and ethoxylated castor oil and other components.
(§2) Trials were conducted in Indiana, North Dakota, and Ohio (1 location per state). Weed species varied by location but included glyphosate resistant marestail or kochia. Weed control (herbicide efficacy) evaluations were taken at approximately 7, 14, and 28 days after herbicides were applied.

[3] = system: kochia; assay: as above; assay type: in vivo; details: North Dakota, 10% methyl salicylate substituted for methylated soybean oil
Method: as §1, §2

[4] = system: wheat; assay: Paraquat Concentrate Trials, weed control evaluation; assay type: in vivo; details: North Dakota; Paraquat Concentrate 0.45 pt product/ac
Method: (§3) Each treatment was comprised of Paraquat Concentrate applied at 0.45 pt product/ac, diluted and applied at 10 gallons/acre spray volume.
(§4) Trials were conducted in Indiana, North Dakota, and Ohio (1 location per state).
(§5) Weed species varied by location but included glyphosate resistant marestail or kochia. Weed control (herbicide efficacy) evaluations were taken at approximately 7, 14, and 28 days after herbicides were applied.

[5] = system: common lambsquarters; assay: as above; assay type: in vivo; details: North Dakota; Paraquat Concentrate 0.45 pt product/ac
Method: as §3, §4, §5

[6] = system: Marestail; assay: as above; assay type: in vivo; details: Indiana; Paraquat Concentrate Trials (text prints Instigate)
Method: as §3, §4, §5

[7] = system: Marestail; assay: Instigate Trials, weed control evaluation; assay type: in vivo
Method: (§6) Each treatment was comprised of Instigate applied at 3 oz product/ac, diluted and applied at 10 gallons/acre spray volume.
as §4, §5

[8] = system: kochia; assay: Instigate Trials, weed control evaluation; assay type: in vivo; details: North Dakota, 27 days after treatment, with methylated soybean oil and AU-110 and F emulsifiers
Method: as §6, §4, §5

COC(=O)c1ccccc1O [methyl salicylate]
Change of control of glyphosate-resistant marestail (in words) [1]: did not increase control | marestail control (in words) ([2]; Indiana, Roundup PowerMax 11 oz/ac plus Sharpen): no increase in control | marestail control (in words) ([2]; Ohio, Roundup PowerMax 11 oz/ac plus Sharpen): numerically greater | marestail control (in words) ([2]; Ohio, Roundup PowerMax plus Sharpen, 14 days after treatment, with D emulsifier and F emulsifiers): greater | kochia control (in words) ([3]; with the AU-110 or F emulsifier): not | kochia control (in words) ([3]; with the D emulsifier): increased control | wheat control (in words) [4]: did not increase control | common lambsquarters control (in words) [5]: did not increase control | marestail control (in words) [6]: did not increase marestail control | marestail control (in words) ([7]; Indiana, Instigate 3 oz product/ac): did not increase marestail control | marestail control (in words) ([7]; Ohio, Instigate, with methylated soybean oil and F emulsifier): increased marestail control | kochia control (in words) [8]: numerically greater
